Data taken from ChEMBL document CHEMBL3045590, “Design, synthesis, bioactivity, and structure-activity relationship (SAR) studies of novel benzoylphenylureas containing oxime ether group” (2008).
≈ marks a conversion by molar mass, not a printed value.

Assays:
Format in all cases: functional
[1] = test system: Mythimna separata; assay: Larvicidal activity against fourth-instar larval stage of Mythimna separata (Oriental armyworm) in compound-pretreated corn leaves assessed as mortality at 200 mg/l at 25 +/-1 degC after 4 days
[2] = test system: Culex pipiens pallens; assay: Larvicidal activity against fourth-instar larval stage of Culex pipiens pallens (mosquito) assessed as mortality at 0.25 mg/l at 25 +/-1 degC after 8 days; details: 192 h
[3] = test system: Mythimna separata; assay: Larvicidal activity against fourth-instar larval stage of Mythimna separata (Oriental armyworm) in compound-pretreated corn leaves assessed as mortality at 10 mg/l at 25 +/-1 degC after 4 days
[4] = test system: Mythimna separata; assay: Larvicidal activity against fourth-instar larval stage of Mythimna separata (Oriental armyworm) in compound-pretreated corn leaves assessed as mortality at 25 mg/l at 25 +/-1 degC after 4 days
[5] = test system: Mythimna separata; assay: Larvicidal activity against fourth-instar larval stage of Mythimna separata (Oriental armyworm) in compound-pretreated corn leaves assessed as mortality at 100 mg/l at 25 +/-1 degC after 4 days
[6] = test system: Culex pipiens pallens; assay: Larvicidal activity against fourth-instar larval stage of Culex pipiens pallens (mosquito) assessed as mortality at 0.1 mg/l at 25 +/-1 degC after 8 days; details: 192 h
[7] = test system: Mythimna separata; assay: Larvicidal activity against fourth-instar larval stage of Mythimna separata (Oriental armyworm) in compound-pretreated corn leaves assessed as mortality at 2.5 mg/l at 25 +/-1 degC after 4 days
[8] = test system: Culex pipiens pallens; assay: Larvicidal activity against fourth-instar larval stage of Culex pipiens pallens (mosquito) assessed as mortality at 0.5 mg/l at 25 +/-1 degC after 8 days; details: 192 h
[9] = test system: Mythimna separata; assay: Larvicidal activity against fourth-instar larval stage of Mythimna separata (Oriental armyworm) in compound-pretreated corn leaves assessed as mortality at 50 mg/l at 25 +/-1 degC after 4 days
[10] = test system: Culex pipiens pallens; assay: Larvicidal activity against fourth-instar larval stage of Culex pipiens pallens (mosquito) assessed as mortality at 1 mg/l at 25 +/-1 degC after 8 days; details: 192 h
[11] = test system: Mythimna separata; assay: Larvicidal activity against fourth-instar larval stage of Mythimna separata (Oriental armyworm) in compound-pretreated corn leaves assessed as mortality at 25 +/-1 degC after 4 days
[12] = test system: Culex pipiens pallens; assay: Larvicidal activity against fourth-instar larval stage of Culex pipiens pallens (mosquito) assessed as mortality at 0.01 mg/l at 25 +/-1 degC after 8 days; details: 192 h
[13] = test system: Culex pipiens pallens; assay: Larvicidal activity against fourth-instar larval stage of Culex pipiens pallens (mosquito) assessed as mortality at 0.025 mg/l at 25 +/-1 degC after 8 days; details: 192 h
[14] = test system: Mythimna separata; assay: Larvicidal activity against fourth-instar larval stage of Mythimna separata (Oriental armyworm) in compound-pretreated corn leaves assessed as mortality at 0.5 mg/l at 25 +/-1 degC after 4 days
[15] = test system: Mythimna separata; assay: Larvicidal activity against fourth-instar larval stage of Mythimna separata (Oriental armyworm) in compound-pretreated corn leaves assessed as mortality at 5 mg/l at 25 +/-1 degC after 4 days
[16] = test system: Mythimna separata; assay: Larvicidal activity against fourth-instar larval stage of Mythimna separata (Oriental armyworm) in compound-pretreated corn leaves assessed as mortality at 1 mg/l at 25 +/-1 degC after 4 days
[17] = test system: Culex pipiens pallens; assay: Larvicidal activity against fourth-instar larval stage of Culex pipiens pallens (mosquito) assessed as mortality at 0.05 mg/l at 25 +/-1 degC after 8 days; details: 192 h
[18] = test system: Cucumis sativus; assay: Growth regulation of Cucumis sativus (cucumber) seeds assessed as stimulation of radicle growth at 10 mg/l at 26 degC after 5 days
[19] = test system: Culex pipiens pallens; assay: Larvicidal activity against fourth-instar larval stage of Culex pipiens pallens (mosquito) assessed as mortality at 0.001 mg/l at 25 +/-1 degC after 8 days; details: 192 h
[20] = test system: Culex pipiens pallens; assay: Larvicidal activity against fourth-instar larval stage of Culex pipiens pallens (mosquito) assessed as mortality at 0.005 mg/l at 25 +/-1 degC after 8 days; details: 192 h
[21] = test system: Culex pipiens pallens; assay: Larvicidal activity against fourth-instar larval stage of Culex pipiens pallens (mosquito) assessed as mortality at 0.0025 mg/l at 25 +/-1 degC after 8 days; details: 192 h
[22] = test system: Culex pipiens pallens; assay: Larvicidal activity against fourth-instar larval stage of Culex pipiens pallens (mosquito) assessed as mortality at 2 mg/l at 25 +/-1 degC after 8 days; details: 192 h

| Compound | mortality at 0.25 µg/mL [2] | mortality at 10 µg/mL [3] | mortality at 25 µg/mL [4] | mortality at 100 µg/mL [5] | mortality at 0.1 µg/mL [6] | mortality at 2.5 µg/mL [7] | mortality at 0.5 µg/mL [8] | mortality at 50 µg/mL [9] | mortality at 1 µg/mL [10] | mortality at 0.01 µg/mL [12] | mortality at 0.025 µg/mL [13] | mortality at 0.05 µg/mL [17] | Activity [18] | also measured |
| --- | --- | --- | --- | --- | --- | --- | --- | --- | --- | --- | --- | --- | --- | --- |
| COC(=O)CO/N=C/c1ccc(NC(=O)NC(=O)c2c(F)cccc2F)cc1 | 80% | 10% | 30% | 80% | 0% | 0% | 100% | 56.7% | 100% |  |  |  |  | mortality at 200 µg/mL [1]: 90% |
| O=C(NC(=O)c1c(F)cccc1F)Nc1cc(Cl)c(Oc2ncc(C(F)(F)F)cc2Cl)c(Cl)c1 [CHLORFLUAZURON] |  |  |  |  |  |  |  |  |  |  |  |  |  | LC50 [11]: 1.03 µg/mL (≈ 1.91 µM) |
| O=C(NC(=O)c1c(F)cccc1F)Nc1ccc(CO/N=C(/c2ccc(Cl)cc2)C2CC2)cc1 [FLUCYCLOXURON] |  | 95% |  |  | 100% | 50% |  |  |  | 0% | 15% | 100% |  | mortality at 0.5 µg/mL [14]: 0%; mortality at 5 µg/mL [15]: 90%; mortality at 1 µg/mL [16]: 10%; LC50 [11]: 2.44 µg/mL (≈ 5.04 µM) |
| C#CCO/N=C/c1ccc(NC(=O)NC(=O)c2c(F)cccc2F)cc1 | 100% | 55% | 75% |  | 100% | 10% | 100% | 100% | 100% | 0% | 10% | 40% |  | mortality at 1 µg/mL [16]: 0% |
| O=C(NC(=O)c1c(F)cccc1F)Nc1cc(Cl)c(F)c(Cl)c1F [TEFLUBENZURON] |  |  |  |  |  |  |  |  |  |  |  |  |  | LC50 [11]: 1.14 µg/mL (≈ 2.99 µM) |
| O=C(NC(=O)c1c(F)cccc1F)Nc1ccc(/C=N/OCCF)cc1 | 100% | 20% | 90% |  | 60% | 0% | 100% | 90% | 100% |  | 0% | 10% | 110% |  |
| CO/N=C/c1ccc(NC(=O)NC(=O)c2c(F)cccc2F)cc1 | 100% |  | 0% | 90% | 100% |  | 100% | 40% | 100% | 0% | 10% | 100% | 30% |  |
| O=C(NC(=O)c1c(F)cccc1F)Nc1cc(Cl)c(OC(F)(F)C(F)F)c(Cl)c1 [HEXAFLUMURON] |  |  |  |  |  |  |  |  |  |  |  |  |  | LC50 [11]: 4.7 µg/mL (≈ 10.2 µM) |
| O=C(NC(=O)c1c(F)cccc1F)Nc1ccc(/C=N/OCC2CC2)cc1 |  | 100% | 100% |  |  | 90% |  |  |  | 100% |  |  |  | mortality at 0.001 µg/mL [19]: 0%; mortality at 0.005 µg/mL [20]: 100%; mortality at 5 µg/mL [15]: 100%; mortality at 1 µg/mL [16]: 0%; mortality at 0.0025 µg/mL [21]: 60% |
| CCCO/N=C/c1ccc(NC(=O)NC(=O)c2c(F)cccc2F)cc1 | 100% |  | 20% | 80% | 100% | 0% | 100% | 70% | 100% |  | 0% | 50% |  |  |
| COCCO/N=C/c1ccc(NC(=O)NC(=O)c2c(F)cccc2F)cc1 |  |  |  | 10% |  |  | 0% | 0% | 100% |  |  |  | 30% | mortality at 200 µg/mL [1]: 40% |
| O=C(NC(=O)c1c(F)cccc1F)Nc1ccc(/C=N/OCCCl)cc1 | 100% | 100% |  |  | 90% | 55% | 100% | 100% | 100% | 0% | 20% | 90% | 110% | mortality at 5 µg/mL [15]: 75%; mortality at 1 µg/mL [16]: 0% |
| CCC(C)O/N=C/c1ccc(NC(=O)NC(=O)c2c(F)cccc2F)cc1 (configuration not stated) |  | 80% | 100% |  | 100% | 30% |  |  |  | 40% | 100% | 100% |  | mortality at 0.005 µg/mL [20]: 20%; mortality at 5 µg/mL [15]: 50%; mortality at 1 µg/mL [16]: 0%; mortality at 0.0025 µg/mL [21]: 10% |
| O=C(NC(=O)c1ccccc1Cl)Nc1ccc(Cl)cc1 [CHLORBENZURON] |  |  |  |  |  |  |  |  |  |  |  |  |  | LC50 [11]: 2.29 µg/mL (≈ 7.41 µM) |
| O=C(NC(=O)c1c(F)cccc1F)Nc1ccc(/C=N/OC2CCCC2)cc1 | 100% |  |  | 20% | 100% |  | 100% | 0% | 100% |  | 0% | 10% | 85% | mortality at 200 µg/mL [1]: 70% |
| O=C(NC(=O)c1c(Cl)cccc1Cl)Nc1ccc(Cl)cc1 [DICHLORBENZURON] |  |  |  |  |  |  |  |  |  |  |  |  |  | LC50 [11]: 1.82 µg/mL (≈ 5.3 µM) |
| CCCCO/N=C/c1ccc(NC(=O)NC(=O)c2c(F)cccc2F)cc1 | 100% |  |  | 40% | 100% |  | 100% | 0% | 100% |  | 0% | 100% | 50% | mortality at 200 µg/mL [1]: 50% |
| CC(C)CO/N=C/c1ccc(NC(=O)NC(=O)c2c(F)cccc2F)cc1 | 100% |  | 30% | 100% | 100% | 0% | 100% | 80% | 100% | 0% | 10% | 10% | 45% |  |
| CCO/N=C/c1ccc(NC(=O)NC(=O)c2c(F)cccc2F)cc1 | 100% | 10% | 75% | 100% | 100% |  | 100% | 100% | 100% | 0% | 10% |  | 0% | mortality at 5 µg/mL [15]: 0% |
| CCCCCO/N=C/c1ccc(NC(=O)NC(=O)c2c(F)cccc2F)cc1 | 80% | 0% | 20% |  | 15% |  | 90% | 90% | 100% |  |  | 0% | 50% | mortality at 2 µg/mL [22]: 100% |
| CCCC(C)O/N=C/c1ccc(NC(=O)NC(=O)c2c(F)cccc2F)cc1 (configuration not stated) |  | 20% | 70% |  | 100% | 0% |  | 80% |  | 40% | 100% | 100% | 45% | mortality at 0.005 µg/mL [20]: 20%; mortality at 0.0025 µg/mL [21]: 10% |
| C=CCO/N=C/c1ccc(NC(=O)NC(=O)c2c(F)cccc2F)cc1 | 100% | 0% | 10% | 90% | 90% |  | 100% | 66.7% | 100% |  | 0% |  | 120% |  |
| O=C(NC(=O)c1c(F)cccc1F)Nc1ccc(/C=N/OCc2ccccc2)cc1 | 20% |  | 0% | 30% | 10% |  | 100% | 10% | 100% |  |  |  | 60% | mortality at 200 µg/mL [1]: 40% |
